Laboratory results taken from patent publication US20260284018A1, “DUAL INHIBITORS OF DYRK1A AND 5-HT2 FOR TREATING A BRAIN DISORDER” (THE REGENTS OF THE UNIVERSITY OF CALIFORNIA, priority 2023, published 2026).

What was measured:
[1] = molecular target: T1, ABL1(E255K)-phosphorylated (Homo sapiens, UniProt P00519, E255K); settings: 10 μM; cited from earlier work
T1 construct: purchased Eurofins DiscoverX

[2] = molecular target: T2, BRAF (Homo sapiens, UniProt P15056); settings: 10 μM; cited from earlier work
T2 construct: purchased Eurofins DiscoverX
T2 sequence (P15056 whole entry): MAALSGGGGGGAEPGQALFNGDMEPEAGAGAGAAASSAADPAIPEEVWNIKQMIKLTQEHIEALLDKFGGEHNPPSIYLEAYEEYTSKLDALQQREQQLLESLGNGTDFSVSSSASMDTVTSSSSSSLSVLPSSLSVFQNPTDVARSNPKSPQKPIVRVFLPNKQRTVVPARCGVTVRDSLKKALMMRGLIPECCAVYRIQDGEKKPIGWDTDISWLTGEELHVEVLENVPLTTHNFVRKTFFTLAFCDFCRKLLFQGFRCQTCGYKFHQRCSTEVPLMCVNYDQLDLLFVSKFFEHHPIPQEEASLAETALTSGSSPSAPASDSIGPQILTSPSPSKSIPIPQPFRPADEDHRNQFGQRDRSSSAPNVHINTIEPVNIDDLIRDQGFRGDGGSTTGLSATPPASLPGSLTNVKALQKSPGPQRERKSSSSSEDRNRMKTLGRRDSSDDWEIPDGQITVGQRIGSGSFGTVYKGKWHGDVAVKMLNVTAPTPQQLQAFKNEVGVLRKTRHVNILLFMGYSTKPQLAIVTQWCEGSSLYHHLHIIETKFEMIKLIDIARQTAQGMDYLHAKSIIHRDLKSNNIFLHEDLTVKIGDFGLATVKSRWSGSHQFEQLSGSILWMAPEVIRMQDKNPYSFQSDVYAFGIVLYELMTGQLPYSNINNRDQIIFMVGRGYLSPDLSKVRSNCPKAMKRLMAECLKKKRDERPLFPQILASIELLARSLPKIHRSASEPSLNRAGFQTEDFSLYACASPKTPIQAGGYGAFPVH

[3] = molecular target: T3, CHEK1 (Homo sapiens, UniProt O14757); settings: 10 μM; cited from earlier work
T3 construct: purchased Eurofins DiscoverX

[4] = molecular target: T4, CSF1R (Homo sapiens, UniProt P07333); settings: 10 μM; cited from earlier work
T4 construct: purchased Eurofins DiscoverX

[5] = molecular target: T5, CSNK1G2 (Homo sapiens, UniProt P78368); settings: 10 μM; cited from earlier work
T5 construct: purchased Eurofins DiscoverX

[6] = molecular target: T6, EGFR(L858R) (Homo sapiens, UniProt P00533, L858R); settings: 10 μM; cited from earlier work
T6 construct: purchased Eurofins DiscoverX

[7] = molecular target: T7, ERBB4 (Homo sapiens, UniProt Q15303); settings: 10 μM; cited from earlier work
T7 construct: purchased Eurofins DiscoverX

[8] = molecular target: T8, FAK (Homo sapiens, UniProt Q05397); settings: 10 μM; cited from earlier work
T8 construct: purchased Eurofins DiscoverX

[9] = molecular target: T9, JAK3(JH1domain-catalytic) (Homo sapiens, UniProt P52333); settings: 10 μM; cited from earlier work
T9 construct: JAK3(JH1domain-catalytic); purchased Eurofins DiscoverX
T9 sequence (P52333 822-1111 limits assumed): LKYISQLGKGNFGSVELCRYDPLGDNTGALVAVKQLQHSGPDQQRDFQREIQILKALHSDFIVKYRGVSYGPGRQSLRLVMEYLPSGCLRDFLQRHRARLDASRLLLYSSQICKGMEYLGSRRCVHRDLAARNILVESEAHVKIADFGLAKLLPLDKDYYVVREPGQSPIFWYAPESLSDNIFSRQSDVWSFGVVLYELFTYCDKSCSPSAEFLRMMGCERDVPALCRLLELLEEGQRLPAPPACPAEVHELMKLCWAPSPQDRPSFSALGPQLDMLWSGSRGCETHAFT

[10] = molecular target: T10, KIT(V559D, T670I) (Homo sapiens, UniProt P10721, T670I/V559D); settings: 10 μM; cited from earlier work
T10 construct: purchased Eurofins DiscoverX

[11] = molecular target: T11, MAP3K4 (Homo sapiens, UniProt Q9Y6R4); settings: 10 μM; cited from earlier work
T11 construct: purchased Eurofins DiscoverX (KINOMEscan scanEDGE service)

[12] = molecular target: T12, PAK2 (Homo sapiens, UniProt Q13177); settings: 10 μM; cited from earlier work
T12 construct: purchased Eurofins DiscoverX (KINOMEscan scanEDGE service)

[13] = molecular target: T13, PIM3 (Homo sapiens, UniProt Q86V86); settings: 10 μM; cited from earlier work
T13 construct: purchased Eurofins DiscoverX (KINOMEscan scanEDGE service)

[14] = molecular target: T14, PLK1 (Homo sapiens, UniProt P53350); settings: 10 μM; cited from earlier work
T14 construct: purchased Eurofins DiscoverX KINOMEscan scanEDGE

[15] = molecular target: T15, SNARK (Homo sapiens, UniProt Q9H093); settings: 10 μM; cited from earlier work
T15 construct: purchased Eurofins DiscoverX KINOMEscan scanEDGE
T15 sequence (Q9H093 whole entry): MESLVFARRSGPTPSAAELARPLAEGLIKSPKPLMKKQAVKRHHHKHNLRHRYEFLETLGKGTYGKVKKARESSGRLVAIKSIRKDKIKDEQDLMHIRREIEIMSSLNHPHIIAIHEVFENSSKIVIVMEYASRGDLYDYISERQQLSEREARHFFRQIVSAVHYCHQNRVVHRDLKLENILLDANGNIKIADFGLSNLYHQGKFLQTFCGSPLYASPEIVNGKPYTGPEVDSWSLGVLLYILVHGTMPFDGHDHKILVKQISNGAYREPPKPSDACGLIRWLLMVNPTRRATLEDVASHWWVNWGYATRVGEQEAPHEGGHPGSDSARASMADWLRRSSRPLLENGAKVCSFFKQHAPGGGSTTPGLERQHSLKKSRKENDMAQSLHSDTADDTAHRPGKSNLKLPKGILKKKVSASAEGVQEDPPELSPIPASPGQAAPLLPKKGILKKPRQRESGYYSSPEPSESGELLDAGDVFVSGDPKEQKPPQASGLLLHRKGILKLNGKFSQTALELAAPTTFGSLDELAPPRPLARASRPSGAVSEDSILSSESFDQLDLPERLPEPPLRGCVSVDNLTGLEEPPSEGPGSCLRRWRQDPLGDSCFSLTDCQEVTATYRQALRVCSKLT

[16] = molecular target: T16, SRC (Homo sapiens, UniProt P12931); settings: 10 μM; cited from earlier work
T16 construct: purchased Eurofins DiscoverX KINOMEscan scanEDGE

[17] = molecular target: T17, TGFBR1 (Homo sapiens, UniProt P36897); settings: 10 μM; cited from earlier work
T17 construct: purchased Eurofins DiscoverX KINOMEscan scanEDGE

[18] = molecular target: T18, TRKA (Homo sapiens, UniProt P04629); settings: 10 μM; cited from earlier work
T18 construct: purchased Eurofins DiscoverX KINOMEscan scanEDGE

[19] = molecular target: T19, TSSK1B (Homo sapiens, UniProt Q9BXA7); settings: 10 μM; cited from earlier work
T19 construct: purchased Eurofins DiscoverX KINOMEscan scanEDGE
T19 sequence (Q9BXA7 whole entry): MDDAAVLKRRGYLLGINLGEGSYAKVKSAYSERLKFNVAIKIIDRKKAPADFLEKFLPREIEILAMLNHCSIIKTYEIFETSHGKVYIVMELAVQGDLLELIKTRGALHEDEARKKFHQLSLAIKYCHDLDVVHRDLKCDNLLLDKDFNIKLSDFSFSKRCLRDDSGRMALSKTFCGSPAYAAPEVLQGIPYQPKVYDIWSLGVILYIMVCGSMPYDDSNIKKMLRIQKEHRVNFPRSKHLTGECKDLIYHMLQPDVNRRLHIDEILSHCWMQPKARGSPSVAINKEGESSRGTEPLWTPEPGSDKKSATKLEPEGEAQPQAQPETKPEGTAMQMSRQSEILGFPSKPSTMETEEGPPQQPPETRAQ

[20] = molecular target: T20, YANK3 (Homo sapiens, UniProt Q86UX6); settings: 10 μM; cited from earlier work
T20 construct: purchased Eurofins DiscoverX KINOMEscan scanEDGE

[21] = molecular target: T21, ABL1-phosphorylated (Homo sapiens, UniProt P00519); experiment: KINOMEscan scanEDGE; format: binding; settings: read-out: Percent Control
T21 construct: purchased Eurofins DiscoverX
T21 sequence (P00519 whole entry): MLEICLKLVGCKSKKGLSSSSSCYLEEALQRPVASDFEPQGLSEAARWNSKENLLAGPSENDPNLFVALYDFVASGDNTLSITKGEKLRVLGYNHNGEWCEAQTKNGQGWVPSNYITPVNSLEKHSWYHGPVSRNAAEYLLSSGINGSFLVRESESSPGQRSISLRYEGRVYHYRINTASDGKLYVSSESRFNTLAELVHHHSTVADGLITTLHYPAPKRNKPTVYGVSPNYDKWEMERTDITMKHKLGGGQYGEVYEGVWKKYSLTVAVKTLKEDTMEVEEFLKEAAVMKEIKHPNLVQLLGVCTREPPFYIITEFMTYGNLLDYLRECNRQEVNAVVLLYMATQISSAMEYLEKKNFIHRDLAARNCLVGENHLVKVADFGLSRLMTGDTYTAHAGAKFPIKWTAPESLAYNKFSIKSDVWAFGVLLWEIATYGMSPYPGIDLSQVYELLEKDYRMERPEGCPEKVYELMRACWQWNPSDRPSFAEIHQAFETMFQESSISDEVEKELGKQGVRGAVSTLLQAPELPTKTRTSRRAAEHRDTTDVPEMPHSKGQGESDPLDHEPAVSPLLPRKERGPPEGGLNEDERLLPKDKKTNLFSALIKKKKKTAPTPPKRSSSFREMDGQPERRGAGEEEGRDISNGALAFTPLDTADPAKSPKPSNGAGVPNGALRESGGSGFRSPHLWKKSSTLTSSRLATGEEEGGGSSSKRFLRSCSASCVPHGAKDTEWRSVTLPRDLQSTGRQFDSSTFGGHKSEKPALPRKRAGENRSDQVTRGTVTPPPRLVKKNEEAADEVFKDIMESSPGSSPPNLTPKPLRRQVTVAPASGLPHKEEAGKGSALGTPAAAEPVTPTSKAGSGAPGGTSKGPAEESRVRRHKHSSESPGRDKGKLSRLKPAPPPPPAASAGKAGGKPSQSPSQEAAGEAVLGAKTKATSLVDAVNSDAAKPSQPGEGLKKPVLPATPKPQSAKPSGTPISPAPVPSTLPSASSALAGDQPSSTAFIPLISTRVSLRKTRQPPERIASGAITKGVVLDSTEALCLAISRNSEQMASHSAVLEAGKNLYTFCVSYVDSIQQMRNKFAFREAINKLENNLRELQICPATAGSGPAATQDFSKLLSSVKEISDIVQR
Procedure, shortened: (§1)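 Results are expressed as percent activity versus DMSO control, lower values reflecting tighter binding. The compound was tested once at 10 μM within a 97-kinase binding panel.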

[22] = molecular target: T22, ACVR1B (Homo sapiens, UniProt P36896); experiment: KINOMEscan scanEDGE; format: binding; settings: read-out: Percent Control
T22 construct: purchased Eurofins DiscoverX
T22 sequence (P36896 24-505): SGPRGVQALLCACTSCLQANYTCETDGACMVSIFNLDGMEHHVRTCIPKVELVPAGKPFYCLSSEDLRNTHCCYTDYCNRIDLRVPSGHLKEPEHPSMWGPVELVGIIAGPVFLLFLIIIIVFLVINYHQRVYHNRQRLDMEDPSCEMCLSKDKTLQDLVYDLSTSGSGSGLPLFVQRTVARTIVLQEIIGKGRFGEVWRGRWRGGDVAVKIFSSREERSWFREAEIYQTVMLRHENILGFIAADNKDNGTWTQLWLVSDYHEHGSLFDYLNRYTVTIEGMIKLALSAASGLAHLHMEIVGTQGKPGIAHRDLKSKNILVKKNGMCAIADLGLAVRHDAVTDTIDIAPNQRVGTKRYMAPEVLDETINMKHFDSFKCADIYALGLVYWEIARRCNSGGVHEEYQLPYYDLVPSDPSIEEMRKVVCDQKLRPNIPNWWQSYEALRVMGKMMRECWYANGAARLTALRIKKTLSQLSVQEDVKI
Procedure, shortened: as §1

[23] = molecular target: T23, AXL (Homo sapiens, UniProt P30530); experiment: KINOMEscan scanEDGE; format: binding; settings: read-out: Percent Control
T23 construct: purchased Eurofins DiscoverX
Procedure, shortened: as §1

[24] = molecular target: T24, CDK2 (Homo sapiens, UniProt P24941); experiment: KINOMEscan scanEDGE; format: binding; settings: read-out: Percent Control
T24 construct: purchased Eurofins DiscoverX
Procedure, shortened: as §1

[25] = molecular target: T25, CDK9 (Homo sapiens, UniProt P50750); experiment: KINOMEscan scanEDGE; format: binding; settings: read-out: Percent Control
T25 construct: purchased Eurofins DiscoverX
Procedure, shortened: as §1

[26] = molecular target: T26, CSNK1D (Homo sapiens, UniProt P48730); experiment: KINOMEscan scanEDGE; format: binding; settings: read-out: Percent Control
T26 construct: purchased Eurofins DiscoverX
Procedure, shortened: as §1

[27] = molecular target: T27, EPHA2 (Homo sapiens, UniProt P29317); experiment: KINOMEscan scanEDGE; format: binding; settings: read-out: Percent Control
T27 construct: purchased Eurofins DiscoverX
Procedure, shortened: as §1

[28] = molecular target: T28, JNK3 (Homo sapiens, UniProt P53779); experiment: KINOMEscan scanEDGE; format: binding; settings: read-out: Percent Control
T28 construct: purchased Eurofins DiscoverX
Procedure, shortened: as §1

[29] = molecular target: T29, LKB1 (Homo sapiens, UniProt Q15831); experiment: KINOMEscan scanEDGE; format: binding; settings: read-out: Percent Control
T29 construct: purchased Eurofins DiscoverX (KINOMEscan scanEDGE service)
Procedure, shortened: as §1

[30] = molecular target: T30, PAK1 (Homo sapiens, UniProt Q13153); experiment: KINOMEscan scanEDGE; format: binding; settings: read-out: Percent Control
T30 construct: purchased Eurofins DiscoverX (KINOMEscan scanEDGE service)
Procedure, shortened: as §1

[31] = molecular target: T31, PIK3CG (Homo sapiens, UniProt P48736); experiment: KINOMEscan scanEDGE; format: binding; settings: read-out: Percent Control
T31 construct: purchased Eurofins DiscoverX (KINOMEscan scanEDGE service)
T31 sequence (P48736 whole entry): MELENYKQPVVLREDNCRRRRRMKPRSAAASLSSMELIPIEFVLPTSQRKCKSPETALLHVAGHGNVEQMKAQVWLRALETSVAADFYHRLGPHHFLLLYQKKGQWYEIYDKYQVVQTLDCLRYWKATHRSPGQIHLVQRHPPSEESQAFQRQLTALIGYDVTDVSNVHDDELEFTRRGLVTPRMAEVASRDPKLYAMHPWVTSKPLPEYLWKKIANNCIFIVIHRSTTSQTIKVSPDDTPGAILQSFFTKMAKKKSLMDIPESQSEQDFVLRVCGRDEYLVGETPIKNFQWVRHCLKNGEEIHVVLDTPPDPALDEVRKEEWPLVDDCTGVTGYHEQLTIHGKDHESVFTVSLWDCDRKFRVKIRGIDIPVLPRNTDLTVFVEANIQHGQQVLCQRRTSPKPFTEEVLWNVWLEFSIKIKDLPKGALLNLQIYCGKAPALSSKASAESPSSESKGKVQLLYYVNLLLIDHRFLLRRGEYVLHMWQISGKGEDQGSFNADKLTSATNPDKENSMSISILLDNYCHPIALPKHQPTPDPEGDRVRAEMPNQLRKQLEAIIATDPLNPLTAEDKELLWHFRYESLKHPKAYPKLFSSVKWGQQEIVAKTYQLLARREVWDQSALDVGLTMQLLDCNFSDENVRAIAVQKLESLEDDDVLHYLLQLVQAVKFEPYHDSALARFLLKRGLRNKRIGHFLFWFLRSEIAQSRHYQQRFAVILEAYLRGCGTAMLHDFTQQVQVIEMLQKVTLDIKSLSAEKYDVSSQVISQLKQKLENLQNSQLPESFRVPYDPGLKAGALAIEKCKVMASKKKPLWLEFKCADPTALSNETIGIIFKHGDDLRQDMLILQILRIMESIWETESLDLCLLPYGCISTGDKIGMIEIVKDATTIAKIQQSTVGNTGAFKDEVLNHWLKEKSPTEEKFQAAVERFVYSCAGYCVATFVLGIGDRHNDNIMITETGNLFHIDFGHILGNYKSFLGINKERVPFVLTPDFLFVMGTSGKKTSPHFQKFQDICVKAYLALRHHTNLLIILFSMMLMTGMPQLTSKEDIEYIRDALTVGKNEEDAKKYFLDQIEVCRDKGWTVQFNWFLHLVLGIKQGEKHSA
Procedure, shortened: as §1

[32] = molecular target: T32, PIM1 (Homo sapiens, UniProt P11309); experiment: KINOMEscan scanEDGE; format: binding; settings: read-out: Percent Control
T32 construct: purchased Eurofins DiscoverX (KINOMEscan scanEDGE service)
Procedure, shortened: as §1

[33] = molecular target: T33, RSK2(Kin.Dom.1-N-terminal) (Homo sapiens, UniProt P51812); experiment: KINOMEscan scanEDGE; format: binding; settings: read-out: Percent Control
T33 construct: RSK2(Kin.Dom.1-N-terminal); purchased Eurofins DiscoverX KINOMEscan scanEDGE
T33 sequence (P51812 68-327 limits assumed): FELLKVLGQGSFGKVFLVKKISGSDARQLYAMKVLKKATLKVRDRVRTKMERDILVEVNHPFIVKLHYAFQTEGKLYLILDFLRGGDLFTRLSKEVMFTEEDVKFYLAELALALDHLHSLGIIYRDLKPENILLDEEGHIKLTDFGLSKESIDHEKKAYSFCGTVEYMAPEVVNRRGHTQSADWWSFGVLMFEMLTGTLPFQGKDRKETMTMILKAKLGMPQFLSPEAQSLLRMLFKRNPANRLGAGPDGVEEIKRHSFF
Procedure, shortened: as §1

[34] = molecular target: T15, SNARK; experiment: KINOMEscan scanEDGE; format: binding; settings: read-out: Percent Control
Procedure, shortened: as §1

[35] = molecular target: T19, TSSK1B; experiment: KINOMEscan scanEDGE; format: binding; settings: read-out: Percent Control
Procedure, shortened: as §1

[36] = molecular target: T34, ULK2 (Homo sapiens, UniProt Q8IYT8); experiment: KINOMEscan scanEDGE; format: binding; settings: read-out: Percent Control
T34 construct: purchased Eurofins DiscoverX KINOMEscan scanEDGE
Procedure, shortened: as §1

[37] = molecular target: T35, p38-beta (Homo sapiens, UniProt Q15759); experiment: KINOMEscan scanEDGE; format: binding; settings: read-out: Percent Control
T35 construct: purchased Eurofins DiscoverX (KINOMEscan scanEDGE service)
Procedure, shortened: as §1

For `COc1ccc2c(c1)[nH]c1c(C)nccc12` [Harmine, harmine], the “Percent Control” value [1] is given as 74%, the “Percent Control” value [2] is given as 100% and the “Percent Control” value [3] is given as 96%. The “Percent Control” value [4] was 88%, the “Percent Control” value [5] was 19% and the “Percent Control” value [6] was 81%. The “Percent Control” value [7] was 83%, the “Percent Control” value [8] was 100% and the “Percent Control” value [9] was 61%. For the same compound, the “Percent Control” value [10] was 92%, the “Percent Control” value [11] was 93% and the “Percent Control” value [12] was 47%. For the same compound, the “Percent Control” value [13] was 43%, the “Percent Control” value [14] was 93% and the “Percent Control” value [15] was 95%. For the same compound, the “Percent Control” value [16] was 90%, the “Percent Control” value [17] was 91% and the “Percent Control” value [18] was 100%. The “Percent Control” value [19] was 100% and the “Percent Control” value [20] was 77%.
In the case of `COc1ccc2c3ccnc(C)c3n(CCN(C)C)c2c1.O=C(O)/C=C/C(=O)O` [HTW_A_8 fumarate, 2-(7-methoxy-1-methyl-9H-pyrido[3,4-b]indol-9-yl)-N,N-dimethylethan-1-amine Fumarate Salt (2:3)], the remaining binding at 10 µM [21] was 81%, the remaining binding at 10 µM [22] was 83% and the remaining binding at 10 µM [23] was 97%. For the same compound, the remaining binding at 10 µM [24] was 100%, the remaining binding at 10 µM [25] was 100% and the remaining binding at 10 µM [26] was 88%. The remaining binding at 10 µM [27] was 88%, the remaining binding at 10 µM [28] was 91% and the remaining binding at 10 µM [29] was 71%. The remaining binding at 10 µM [30] was 100%, the remaining binding at 10 µM [31] was 33% and the remaining binding at 10 µM [32] was 94%. For the same compound, the remaining binding at 10 µM [33] was 99%, the remaining binding at 10 µM [34] was 100% and the remaining binding at 10 µM [35] was 100%. It also gave a remaining binding at 10 µM [36] of 100% and a remaining binding at 10 µM [37] of 98%.
